Test results published in patent publication US20070099839A1, “Inhibitors of cell migration” (CIT CANCER TARGETING TECHNOLOGIES, priority 2001, published 2007).
No end group written: not given here.

B1: ICAM-1: intracellular adhesion molecule 1, β2 integrin ligand used as competitor (protein, UniProt P05362 28-532, looked up)
Intercellular adhesion …: QTSVSPSKVILPRGGSVLVTCSTSCDQPKLLGIETPLPKKELLLPGNNRKVYELSNVQEDSQPMCYSNCPDGQSTAKTFLTVYWTPERVELAPLPSWQPVGKNLTLRCQVEGGAPRANLTVVLLRGEKELKREPAVGEPAEVTTTVLVRRDHHGANFSCRTELDLRPQGLELFENTSAPYQLQTFVLPATPPQLVSPRVLEVDTQGTVVCSLDGLFPVSEAQVHLALGDQRLNPTVTYGNDSFSAKASVSVTAEDEGTQRLTCAVILGNQSQETLQTVTIYSFPAPNVILTKPEVSEGTEVTVKCEAHPRAKVTLNGVPAQPLGPRAQLLLKATPEDNGRSFSCSATLEVAGQLIHKNQTRELRVLYGPRLDERDCPGNWTWPENSQQTPMCQAWGNPLPELKCLKDGTFPLPIGESVTVTRDLEGTYLCRARSTQGEVTRKVTVNVLSPRYEIVIITVVAAAVIMGTAGLSTYLYNRQRKIKKYRLQQAQKGTPMKPNTQATPP

Assays:
proMMP-8 (Homo sapiens) = molecular target: T1, proMMP-8 (Homo sapiens); test: Binding of GST-αM I domain to immobilised proMMP-8 with competitors; settings: competitors 50 μM; FIG. 4D
T1 construct: GST-αM and GST-αL I domain fusion proteins were expressed and purified as described previously (30); made in house
Method: (§1) (4D) Binding of GST-αM I domain to the immobilised proMMP-8, proMMP-9, ICAM-1, and fibrinogen was studied with ICAM-1, DDGW or KKGW (50 μM) as competitors. In control wells, GST was added instead of GST-αM I domain. The experiment was repeated three times with similar results.
(§2) ICAM-1, fibrinogen, proMMP-8, proMMP-9 or the recombinant domains (0.5 μg/well in PBS) were coated on plastic 96-well plates at +4° C. for 16 h and the wells were blocked with 3% bovine serum albumin (BSA) in PBS for 2 h at room temperature. Binding of the GST-αM I domain was determined essentially as described in the first priority application. In the reverse assay, GST-αM I domain was coated and binding of proMMP-9 was determined using the GE-213 antibody. Competitor peptides were preincubated with the αM I-domain for 20 minutes before the experiment.

PMNs [1] = test: PMN adhesion to immobilized proMMP-9 (phosphatase assay); type: cell-based, human; settings: PMA-stimulated PMNs; peptide 50 μM, antibody 20 μg/ml; FIG. 5C
Method: FIG. 5A to 5D. Recognition of recombinant MMP-9 domains by αMβ2 integrin-expressing cells. The studied cells were PMNs (5A, 5B, 5C), αMβ2 L-cell transfectants (5D), non-transfectants (5D), and LAD-1 cells (5D). PMNs were in resting state or stimulated with PMA (5A, 5C) or C5a or TNFα (5B) before the binding experiment to proMMP-9 or its domains. Cells were also pretreated with each peptide (50 μM), antibody (20 μg/ml) or the αM I domain as indicated. Unbound cells were removed by washing and the number of adherent cells was quantitated by a phosphatase assay. The experiment was repeated three times with similar results.
MMP-9 proteins (200 nM in PBS) were coated at +4° C. for 16 h and the microtiter wells were blocked with 3% BSA in PBS for 1 h at room temperature. The αMβ2-integrin L-cell transfectants and PMNs (1×10^5 cells/well) were suspended in RPMI medium supplemented with 2 mM MgCl2 and 0.1% BSA and activated with PMA (20 nM) for 20 min, or with C5a (50 nM) or TNF-α (10 nM) for 4 h at +37° C. The L926 wild type and LAD-1 cells were used as controls. The cells were treated with the indicated antibody (20 μg/ml) or peptide (50 μM) at +37° C. for 30 min, washed twice with serum-free medium and incubated in the microtiter wells at +37° C. for 30 min. The wells were washed with PBS, and the number of adherent cells was quantitated by a phosphatase assay (25).

[2] = system: intraperitoneal accumulation of PMNs; test: Mouse model of thioglycolate-induced peritonitis; type: in vivo; settings: for prevention of thioglycolate-induced increase in gelatinase levels in intraperitoneal fluid (zymography): DDGW 0.1, HFDDDE 0.2, DFEDHD 0.2 mg per mouse intravenously, FIG. 7D; for inhibition of intraperitoneal accumulation of PMNs: intravenous tail injection, 3 h after thioglycolate, FIG. 7A
Method: (7A) Mice were injected with thioglycolate or PBS intraperitoneally. The peptides were applied intravenuously at the amounts indicated (A). After 3 h, the intraperitoneal leukocytes were harvested and counted. […] (*) indicates statistical significant difference (p<0.001). The experiment was repeated at least 3 times. The infiltrated neutrophils of mice treated with thioglycolate (7B) or PBS (7C) were stained with anti-MMP-9 and anti-αM, as described in the FIG. 3 legend. Fluorescence was studied by confocal microscopy. Bars: 9.1 μm and […], respectively.
(7D) Gelatinolytic activity of the supernatants from the peritoneal cavities of mice collected as in (7A). Lanes 1-4: samples are from thioglycolate-treated mice; lane 5: a sample from PBS-treated mouse. DDGW, HFDDDE, and DFEDHD were injected intravenously at doses of 0.1, 0.2 and 0.2 mg per mouse. The arrows show proMMP-9 dimer, proMMP-9 and proMMP-2. The experiment was repeated three times with similar results.
Balb/c mice at the age of 31-32 weeks were injected intraperitoneally with 3% (w/v) thioglycolate in sterile saline (32). Peptides ([…] in 100 μl) were introduced intravenously through the tail vein. Animals were euthanized after 3 h and the peritoneal cells were harvested by injecting 10 ml of sterile PBS through the peritoneal wall. Red blood cells present in the lavage fluid were removed by hypotonic lysis. Cells were centrifuged and resuspended in 1 ml of sterile 0.25% BSA/Krebs-Ringer. The supernatants were also collected and analysed by gelatin zymography. The number of neutrophils was determined following staining with 0.1% crystal violet and using a light microscope equipped with a ×100 objective. For immunofluorescence staining, cells were allowed to bind to poly-L-lysine coated cover slips, fixed with 2.5% paraformaldehyde in PBS at +4° C. for 30 min followed by several washings. The Fc receptors were blocked in the presence of 20% of rabbit serum and 3% BSA in PBS. The cells were then incubated with anti-MMP-9 polyclonal and αM monoclonal (MCA74) antibodies for 30 min. After washing with PBS, the secondary antibodies, rhodamine (TRITC)-conjugated anti-rabbit or FITC-conjugated anti-rat (Fab′)2 were incubated for another 30 min. The samples were examined with a confocal microscope. The animal studies were approved by an ethical committee of Helsinki University.

[3] = system: leukocyte primary adhesion to ICAM-1, fibrinogen or LLG-C4GST; test: Leukocyte primary adhesion to ICAM-1, fibrinogen or LLG-C4GST; type: cell-based
PMNs [4] = test: PMN transwell migration on LLG-C4-GST coated filters; type: cell-based, human; settings: LLG-C4-GST substratum; peptides 200 μM, antibodies 20 μg/ml; 20 nM PMA; FIG. 6A
Method: (§3) FIG. 6A to 6D. Blockage of PMN and THP-1 cell migration in vitro by gelatinase and β2 integrin inhibitors. PMNs (1×10^5 in 100 μl) were applied on the LLG-C4-GST or GST coated surface (6A) or HMEC monolayer (6B) in the absence or presence of peptides (200 μM) or antibodies (20 μg/ml) as indicated. PMNs were stimulated with 20 nM PMA (6A), HMECs with […] or 10 ng/ml TNFα or left untreated (6B). THP-1 cells (5×10^4 in 100 μl) were stimulated with 50 nM PMA and applied on the coated surfaces together with each peptide (200 μM) (6C). The cells migrated through transwell filters were stained and counted microscopically. All experiments were repeated at least twice. (6D) Phorbol ester-activated THP-1 cells (5×10^4 in 100 μl) were incubated for 16 h at +37° C. in the presence or absence of peptides as indicated. The conditioned medium was analyzed by gelatin zymography.
(§4) Cell migration was conducted using Costar 24-transwell migration chambers with a 3 μm pore size for PMNs and 8 μm for THP-1 cells. To study β2 integrin-directed migration, the chamber membrane was coated on both sides with LLG-C4-GST integrin ligand (40 μg/ml) or GST as a control and blocked with 10% serum-containing medium (16). […] The non-migrated cells were removed from the upper surface by a cotton swab and the cells that had traversed the filters were stained with crystal violet and counted.

THP-1 cells [5] = settings: FI 2003 0923; cited from earlier work
PMNs [6] = test: PMN transendothelial migration through HMEC monolayer; type: cell-based, human; settings: chemotaxis with C5a or TNF-α, peptides 200 μM, antibodies 20 μg/ml, FIG. 6B
Method: as §3, §4

αM I domain = molecular target: T2, αM I domain (Homo sapiens, UniProt P11215); test: Binding of proMMP-9 to immobilized GST-αM I domain in the presence of competitor peptides (detected with GE-213 antibody); settings: FIG. 4C
T2 construct: GST-αM and GST-αL I domain fusion proteins were expressed and purified as described previously (30); made in house
Method: (4C) Binding of proMMP-9 to the immobilized GST-αM I domain was studied in the presence of each peptide at the concentrations indicated. The binding was determined with the anti-MMP-9 antibody GE-213.
as §2

THP-1 cells [7] = test: THP-1 cell migration through LLG-C4-GST coated transwell filters; type: cell-based, human; settings: LLG-C4GST coated filters; 50 nM PMA; peptides 200 μM; 16 h; FIG. 6C
Method: as §3, §4

proMMP-9 (Homo sapiens) = molecular target: T3, proMMP-9 (Homo sapiens); test: Binding of GST-αM I domain to immobilised proMMP-9 with competitors; settings: competitors 50 μM; FIG. 4D
T3 construct: GST-αM and GST-αL I domain fusion proteins were expressed and purified as described previously (30); made in house
Method: as §1, §2

MMP-9 catalytic domain = test: Binding to the MMP-9 catalytic domain (unpublished results)
THP-1 cells [8] = test: Effect of peptides on gelatinase release from THP-1 cells (gelatin zymography); type: cell-based, human; settings: phorbol ester-activated cells; peptides 200 μM; 16 h; FIG. 6D
Method: as §3
THP-1 cells (50 000/100 μl) were incubated in serum-free RPMI for 16 h in the presence or absence of peptides (200 μM) as described in the text The supernatants from THP-1 cells and mouse intraperitoneal fluid were analysed by gelatin zymography. Gelatinolytic activity was quantified by densitometric scanning.

T2 sequence (P11215 150-328 limits assumed): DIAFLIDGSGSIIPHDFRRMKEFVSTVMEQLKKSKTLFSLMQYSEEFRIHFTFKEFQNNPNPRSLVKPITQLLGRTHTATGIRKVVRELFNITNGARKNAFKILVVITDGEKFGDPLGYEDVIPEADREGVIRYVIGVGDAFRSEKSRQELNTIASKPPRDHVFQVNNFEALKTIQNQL
T3 sequence (P11215 150-328 limits assumed): as above
T1 sequence (P11215 150-328 limits assumed): as above
Sequence of MMP-9 catalytic domain (P14780 107-444 limits assumed): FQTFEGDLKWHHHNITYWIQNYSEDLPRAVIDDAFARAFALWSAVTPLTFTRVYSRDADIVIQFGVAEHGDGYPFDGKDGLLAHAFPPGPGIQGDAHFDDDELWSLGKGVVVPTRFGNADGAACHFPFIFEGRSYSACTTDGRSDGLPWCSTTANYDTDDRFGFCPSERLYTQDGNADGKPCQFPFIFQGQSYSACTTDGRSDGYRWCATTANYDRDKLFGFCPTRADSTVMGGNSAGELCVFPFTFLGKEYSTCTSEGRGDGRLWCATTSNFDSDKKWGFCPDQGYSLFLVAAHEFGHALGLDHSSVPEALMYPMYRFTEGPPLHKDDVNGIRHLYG

Molecule	competition with αM I domain binding to proMMP-8 (proMMP-8 (Homo sapiens))	inhibition of PMN adherence on proMMP-9 (PMNs [1])	inhibition of intraperitoneal accumulation of PMNs [2]	inhibition of proMMP-9 binding to the αM I domain (in words) (αM I domain)	competition with αM I domain binding to proMMP-9 (proMMP-9 (Homo sapiens))	further results
ADGACILWMDDGWCGAAG	inhibitable	inhibited	inhibited	equally potent	inhibitable	activity on intraperitoneal PMN accumulation ([2]; 5 μg given per mouse, intravenous): active; prevention of thioglycolate-induced increase in gelatinase levels in intraperitoneal fluid (zymography) [2]: prevented the increase; effective dose ([2]; corresponding to 5 μg given per mouse): 0.1 mg/kg mouse tissue; inhibition of leukocyte primary adhesion to ICAM-1, fibrinogen or LLG-C4GST [3]: unable to inhibit; inhibition of migration of PMA-stimulated PMNs (PMNs [4]): worked similarly; release of proMMP-9 from THP-1 cells (previous studies) (THP-1 cells [5]): can release proMMP-9; inhibition of PMN transendothelial migration (PMNs [6]): inhibition; inhibition of THP-1 migration (THP-1 cells [7]): inhibited
ADGACILWMKKGWCGAAG [control peptide for DDGW]		no effect	no effect	without effect		
CTITHWGFTLC [CTT]		inhibited				binding to the MMP-9 catalytic domain (MMP-9 catalytic domain): binds; inhibition of migration of PMA-stimulated PMNs (PMNs [4]): worked similarly; inhibition of PMN transendothelial migration (PMNs [6]): inhibition; inhibition of THP-1 migration (THP-1 cells [7]): inhibited
DFEDHD		no effect	no effect	inactive		release of proMMP-9 from THP-1 cells (THP-1 cells [8]): did not induce; prevention of thioglycolate-induced increase in gelatinase levels in intraperitoneal fluid (zymography) [2]: not
HFDDDE [HFDDDE]						IC50 (αM I domain; read-out: inhibition of proMMP-9 binding to the αM I domain, IC50): 20 µM
fibrinogen	did not compete				did not compete	
B1	did not compete				did not compete	
